In patent publication US10906909B2, “Treatment of cognitive and mood symptoms in neurodegenerative and neuropsychiatric disorders with ALPHA5-containing GABAA receptor agonists” (UWM Research Foundation, Inc., priority 2016, dated 2021):
Entries after “also recorded” stand apart in the source; their conditions may differ.

Legend:
HEK293 = assay: Cytotoxicity assay (CellTiter-Glo), HEK293; type: cell-based, human; details: 48 hours incubation
Protocol: (§1) Human liver hepatocellular carcinoma (HEPG2) and human embryonic kidney 293 (HEK293) cell lines were purchased (ATCC) and cultured in 75 cm2 flasks (CellStar). Cells were grown in DMEM/High Glucose (Hyclone, #SH3024301) media to which non-essential amino acids (Hyclone, #SH30238.01), 10 mM HEPES (Hyclone, #SH302237.01), 5×106 units of penicillin and streptomycin (Hyclone, #SV30010), and 10% of heat inactivated fetal bovine serum (Gibco, #10082147) were added. Cells were harvested using 0.05% Trypsin (Hyclone, #SH3023601), washed with PBS, and dispensed into sterile white, optical bottom 384-well plates (NUNC, #142762). After three hours, small molecule solutions were transferred with a Tecan Freedom EVO liquid handling system equipped with a 100 nL pin tool (V&P Scientific). The controls (E)-10-(bromotriphenylphosphoranyl)decyl 4-(4-(tert-butyl)phenyl)-4-oxobut-2-enoate (400 μM in DMSO, positive control) and DMSO (negative control). The cells were incubated for 48 hours followed by the addition of CellTiter-Glo™, a luminescence-based cell viability assay (Promega, Madison, Wis.). All luminescence readings were performed on a Tecan Infinite M1000 plate reader. The assay was carried out in quadruplet with three independent runs. The data was normalized to the controls and analyzed by nonlinear regression (GraphPad Prism).

[1] = Pharmacokinetics in mice (plasma, liver, brain); details: i.p. dosing at 3 mg/kg
[2] = Mouse liver microsome stability assay; type: in vitro ADME; details: 10 μM compound; for half-life at 10 μM: mouse, liver microsomes, read-out: Half-life (min) (MouseLM)
Protocol: (§2) Human and mouse liver microsomes were obtained fom BD Gentest.
(§3) Each evaluation included six independent assays carried out three at a time, on two different days
(§4) 2. For a total volume of Microsomal Assay Mixture (MAM) 390 μL, sufficient for seven time points, combine the following
(§5) 3. Sonicate MAM for 5 min and meanwhile thaw microsomes (20 mg/mL) (BD Gentest, Cat #452156) on ice.
(§6) 4. Aliquot 100 μL of ice cold ISTD into 7 separate 1.5 mL conical vials and label them the time points for 0, 10, 20, 40, 60, 90, and 120 min.
(§7) 5. Arrange the timer. Microsomes (Final concentration of 0.5 mg/mL) should be added to all time points except the zero time point.
(§8) 6. Add 50 μL of the MAM solution to the conical vial labelled as zero time point. Place the remaining MAM solution in the incubator (37° C.) for 5 min and initiate the reaction with addition of microsomes (8.8 μL) and record the time.
(§9) 7. At the end of each time interval remove 50 μL and add 100 μL to ISTD in conical vial, sonicate for 10 sec and spin down at 10,000 rpm for 5 minutes.
(§10) 8. Take 100 μL of supernatant and transfer to Spin-X HPLC filter tubes (Corning Incorporated, Cat #8169) and centrifuge at 13,000 rpm for 5 minutes and take 5 μL from this solution and dilute in 495 μL of LCMS grade methanol (Fischer scientific, CAS #67-56-1) in an 2 mL glass auto sampler vial (Microsolv, Cat #95025-WCV) 9. The samples are analyzed by LCMS-8040. (Shimadzu)
(§11) Calculation: From the peak area, calculate the following
(§12) The compounds are tested for the metabolic stability in the Human and Mouse Liver microsomes at 10 μM concentration.

[3] = system: mice subjected to chronic restraint stress (CRS); assay: Y-maze alternation task, chronic restraint stress (CRS) mice; type: in vivo, mouse; details: for effect on CRS-induced working memory deficit (percent alternation rate, Y-maze): 10 mg/kg i.p. 30 min before testing; for Alternation rate (%): Dose 10 mg/kg
Protocol: C57/B16 mice, males and females were ordered from Jackson Laboratories at 8 weeks old and were kept in normal housing conditions (12 h light ON cycle starting at 7 am/water and food ad libitum) for one week. During this week, animals were single housed and handled to reduce the anxiety-like response toward the experimenter. To induce a working memory deficit, mice were subjected to a chronic restraint stress protocol (CRS). They were placed in a 50 ml Falcon® tube, twice a day, for 1 hour during their diurnal cycle. The time of occurrence of the stress was randomized every day to avoid predictability. CRS was not applied on testing days. Y-maze test occurred 15 hours minimum after the last stressor.
Mice were first habituated to the Y-maze apparatus and distal cues during 2 consecutive days over a 10 min free exploration session (one session per day). The next day, animals performed a training session consisting in seven successive trials separated by a 30 s inter-trial interval (ITI); during this training session, mice were familiarized with the experimental procedure (opening and closing of the doors and confinement into the goal arms). For each trial, mice remained in the start-box for a 30 s ITI. Then, the door was opened and the mouse was allowed to enter freely one of the two goal arms; the chosen arm was closed and the choice was recorded. After a 30 s confinement period into the chosen arm, the mouse was removed and brought back to the start-box for a second trial identical to the first one and this procedure was repeated over the series of trials.
The same general procedure used in the training session was implemented 24 h later, except that the ITI was lengthened to 90 s. For this experiment, animals were acutely injected i.p. with vehicle or αPAM, 30 minutes before the beginning of the test. To dissociate memory deficits from an eventual progressive loss of motivation to alternate over the series, an 8th trial was added to the series which was separated from the 7th trial by a shorter ITI (5 s). All animals failing to alternate at the 8th trial were excluded. The mean alternation rate was calculated and was expressed in percentage (number of alternation done by the animal/total number of alternation possible×100)±SEM. The percentage of alternation during the entire task is considered as an index of working memory performance (50% of being a random alternation rate). Factorial ANOVA was applied to the data to reveal differences between groups. If the ANOVA was significant for group effect (p<0.05), Scheffe post-hoc analysis were conducted to identify which groups are different from each other.
(§13) All drugs were diluted in a vehicle solution containing 85% H2O, 14% propylene glycol (Sigma Aldrich) and 1% Tween 80 (Sigma Aldrich). Working solutions were prepared at a concentration of 10 mg/mL and administered i.p. adjusted to the body weight of each animal. Doses used were either 1, 5, 10 or 20 mg/kg. For all Y maze experiments, animals were acutely injected i.p. with vehicle or αPAM, 30 minutes before the beginning of the test.

[4] = Human liver microsome stability assay; type: in vitro ADME; details: 10 μM compound; for half-life at 10 μM: human, liver microsomes, read-out: Half-life (min) (HumanLM)
Protocol: as §2, §3, §4, §5, §6, §7, §8, §9, §10, §11, §12

[5] = system: Female Swiss Webster mice; assay: Rotarod sensorimotor / locomotor coordination; type: in vivo, mouse; details: 40 mg/kg oral gavage; 15 rpm, 3 min; 10, 30, 60 min after dosing
Protocol: Female Swiss Webster mice (10 weeks of age) from Charles River Laboratory, WIL, MA were used for the experiments. The animals were housed under specific pathogen-free conditions, under standard conditions of humidity, temperature and a controlled 12 h light and dark cycle and had free access to food and water. The sensorimotor rotarod test was carried out 10, 30 and 60 minutes after the injection. Mice were tested on a rotarod at 15 rpm for maximum 3 min and the time of fall was recorded. Falling before the 3 minutes period of testing assesses of locomotor coordination impairment induced by the compound.
Mice (N=10/group) received a single administration via oral gavage of test compound (40 mg/kg), diazepam (5 mg/kg), or vehicle (2% polyethylene glycol, 2.5% hydroxypropylmethyl cellulose solution).

HEPG2 = assay: Cytotoxicity assay (CellTiter-Glo), HEPG2; type: cell-based, human; details: 48 hours incubation
Protocol: as §1

C57B1/6 male mice = assay: Forced swim test (FST); type: in vivo, mouse; details: 10 mg/kg i.p. 24, 20, 1 hour before testing; vs vehicle
Protocol: C57B1/6 male mice were ordered from Jackson Laboratories at 8 weeks-old and were group housed (4-5 mice/cage) under normal housing conditions (12 h light ON cycle starting at 7 am/water and food ad libitum) for one week. During this week, animals were handled in order to habituate them to the experimenter and to reduce their anxiety-like response during behavioral testing.
as §13, with “20” for “10”, “5 or” for “5,”, “10” for “10 or 20”, “FST” for “Y maze”, “were” for “were acutely”, “αPAM.” for “αPAM, 30 minutes before the beginning of the test.”
Mice were tested in the forced swim test (FST) (measure of despair-like behavior used for the assessment of antidepressant efficacy). Animals were sub-chronically injected three times (24, 20 and 1 hour before testing) as per standard methods in the field for testing potential antidepressant compounds.
One hour after the last injection, mice were placed in an inescapable transparent tank filled with water (25 cm, 25-26° C.), where they are unable to touch the bottom and unable to jump out of the tank. Animal were recorded for a period of 6 minutes and a manual count of the immobile time in the tank was measured for the 2-6 minutes period by an experimenter blinded to the mouse treatment history. Immobility is defined as the minimum amount of movement to stay afloat. Compounds that reduced immobility in the FST are considered to have potential antidepressant actions.

Compound | HEK293 LD50 (HEK293) | molar concentration range reached in mouse brain tissue [1] | % left after 2 hr. (MouseLM) [2] | half-life at 10 μM [2] | effect on CRS-induced working memory deficit (percent alternation rate, Y-maze) [3] | half-life at 10 μM [4] | sensorimotor impairment on rotarod (time of fall) [5] | HEPG2 LD50 (HEPG2) | Half-life (min) (MouseLM) [2] | Half-life (min) (HumanLM) [4] | % left after 2 hr. (Human LM) [4] | Alternation rate (%) [3] | time spent immobile in the FST (C57B1/6 male mice)
C#Cc1ccc2c(c1)C(c1ccccn1)=N[C@H](C)c1c(-c3nc(C)no3)ncn1-2 [GL-II-33, (R)-5-(8-ethynyl-4-methyl-6-(pyridin-2-yl)-4H-benzo[f]imidazo[1,5-a][1,4]diazepin-3-yl)-3-methyl-1,2,4-oxadiazole] | >400 µM | moderate to high submicromolar concentrations | 82.0 ± 0.3% | 500 ± 66 min | a trend in the reversal of CRS-induced impairment in working memory; also recorded: a trend was detected | 2590 ± 1110 min | no sensorimotor impairment | >400 µM | – | – | – | – | –
C#Cc1ccc2c(c1)C(c1ccccc1F)=N[C@@H](C)c1c(-c3nc(C)no3)ncn1-2 [GL-I-65, (S)-5-(8-ethynyl-6-(2-fluorophenyl)-4-methyl-4H-benzo[f]imidazo[1,5-a][1,4]diazepin-3-yl)-3-methyl-1,2,4-oxadiazole] | – | moderate to high submicromolar concentrations | 81.0 ± 0.4% | – | significant reversal of CRS-induced impairment in working memory; also recorded: increase in alternation rate | – | no sensorimotor impairment | – | 443 ± 67 min | 866 ± 213 min | 86.4 ± 0.3% | – | –
C#Cc1ccc2c(c1)C(c1ccccn1)=N[C@H](C)c1c(C(=O)NC)ncn1-2 [GL-II-31, (R)-8-ethynyl-N,4-dimethyl-6-(pyridin-2-yl)-4H-benzo[f]imidazo[1,5-a][1,4]diazepine-3-carboxamide] | >400 µM | moderate to high submicromolar concentrations | – | 1840 ± 590 min | – | 1870 ± 765 min | no sensorimotor impairment | >400 µM | – | – | – | 56.6% | –
Cc1noc(-c2ncn3c2[C@@H](C)N=C(c2ccccn2)c2cc(Br)ccc2-3)n1 [GL-II-54, (R)-5-(8-bromo-4-methyl-6-(pyridin-2-yl)-4H-benzo[f]imidazo[1,5-a][1,4]diazepin-3-yl)-3-methyl-1,2,4-oxadiazole] | >400 µM | high submicromolar to low micromolar values | – | 2330 ± 1110 min | – | 404 ± 61 min | no sensorimotor impairment | >400 µM | – | – | 76.0 ± 0.2% | 66.66% | significant decrease in immobility time; also recorded: significant antidepressant-like action
C#Cc1ccc2c(c1)C(c1ccccc1F)=NCc1c(-c3nc(C)no3)ncn1-2 [GL-III-23, 5-(8-ethynyl-6-(2-fluorophenyl)-4H-benzo[f]imidazo[1,5-a][1,4]diazepin-3-yl)-3-methyl-1,2,4-oxadiazole] | >100 µM | micromolar concentrations | – | 1320 ± 316 min | – | 504 ± 77 min | – | >100 µM | – | – | 82.0 ± 0.3% | 56.6% | –
